Read-outs that look alike come from different tables or passages of the source.
Experiment: Plasma pharmacokinetics with loading dose and weekly or twice weekly maintenance dosing, fed (Example 5)
Type: in vivo, human
Settings: for AUC: read-out: Mean AUCτ (SD); for Tmax: read-out: Median tmax (min-max); for Cmax: read-out: Mean Cmax (SD)
Protocol: A pharmaceutical formulation comprising Compound (a) as described in Example 2 (SF2a/b) was administered as an oral dosage form, to healthy adult participants, in a fed state. Four dose regimens were applied: • Panel I (weekly dosing): 450 mg of Compound (a) twice a day (BID) for two days: on day 1 (D1) and on day 2 (D2) (loading dose); and then 900 mg once a week (Q7D), on day 3 (D3), day 10 (D10), day 17 (D17), and on day 24 (D24) (maintenance dose). • Panel II (biweekly dosing): 450 mg of Compound (a) twice a day (BID) for two days: on day 1 (D1) and on day 2 (D2); (loading dose) and then 450 mg once every 3 (Q3D) or 4 days (Q4D): on day 3 (D3), on day 6 (D6), on day 10 (D10), on day 13 (D13), on day 17 (D17), on day 20 (D20), on day 24 (D24), and on day 27 (D27), for a total of 900 mg each week administered through two doses of 450 mg each (maintenance dose). • Panel III (weekly dosing): 150 mg of Compound (a) twice a day (BID) for two days: on day 1 (D1) and on day 2 (D2) (loading dose); and then 300 mg once a week (Q7D): on day 3 (D3), day 10 (D10), day 17 (D17), and on day 24 (D24) (maintenance dose). • Panel IV (biweekly dosing): 150 mg of Compound (a) twice a day (BID) for two days: on day 1 (D1) and on day 2 (D2) (loading dose); and then 150 mg Q3D or Q4D: on day 3 (D3), on day 6 (D6), on day 10 (D10), on day 13 (D13), on day 17 (D17), on day 20 (D20), on day 24 (D24), and on day 27 (D27), for a total of 300 mg each week administered through two doses of 150 mg each (maintenance dose).
Oral dosage forms were administered together with approximately 240 mL of non-carbonated water under fed conditions, and were taken within 10 minutes after completion of normal standardized normal fat breakfast in the morning or after completion of normal standardized normal fat dinner in case of evening dosing. Intake of Compound (a) took place at around the same time each day. Intake of Compound (a) marked time 0 hours.
A standardized normal fat meal was served approximately 30 minutes before study drug intake. The standardized normal fat meal contained approximately 21 g of fat, 67 g of carbohydrates, 19 g of proteins resulting in around 533 kcal (an example meal is 4 slices of bread, 2 slices of ham or cheese, butter, jelly, and 1 or 2 cups (up to 355 mL) of decaffeinated coffee or tea with milk and/or sugar). The standardized normal fat meal was ingested entirely within 30 minutes or less. Within 10 minutes after completing the meal, but no more than 30 minutes after the start of the meal, study drug was administered. In case of Compound (a) intake in the evening, timing of standardized dinner was aligned to time of drug intake. […]
For Study Panel 1 only, additional whole blood samples were be collected on Days 1, 24, 25, 26, 38, 45, 51, and 59 using venipuncture. The whole blood samples were be used for the determination of Compound (a) whole blood concentrations and for determination of Compound (a) plasma concentrations. To determine Compound (a) venous whole blood concentrations, an aliquot of the whole blood sample was be pipetted onto the TASSO M-20 for better comparison with capillary whole blood samples collected by TASSO M-20. […]
Separation between metabolites and interfering endogenous compounds was achieved by injecting 2 μL sample extract onto an Acquity UPLC BEH C18 column (50×2.1 mm, 1.7 μm, Waters) at 50° C. and using 10 mM ammonium bicarbonate solution as mobile phase A, and methanol: acetonitrile (50:50, v/v) as mobile phase B. A gradient elution at a flow rate of 0.600 mL/min was applied using the following program: 35% B was increased to 90% B in 3 min, was further increased to 98% B at 3.01 min and held constant up to 4.00 min.
A Triple Quad 6500+ mass spectrometer (Sciex) equipped with a turbo ion spray source was used for analyte detection in positive ion mode using electrospray ionization. […]

[1] = Panel I (450 mg BID Days 1-2, then 900 mg Q7D; SF2a/b, fed), Day 2
[2] = Panel II (450 mg BID Days 1-2, then 450 mg Q3D/Q4D; SF2a/b, fed), Day 2
[3] = Panel III (150 mg BID Days 1-2, then 300 mg Q7D; SF2a/b, fed), Day 2
[4] = Panel IV (150 mg BID Days 1-2, then 150 mg Q3D/Q4D; SF2a/b, fed), Day 2
[5] = human, plasma, oral, 150 mg, Panel III (150 mg BID Days 1-2, then 300 mg Q7D; SF2a/b, fed), Day 1
[6] = human, plasma, oral, 150 mg, Panel III (150 mg BID Days 1-2, then 300 mg Q7D; SF2a/b, fed), Day 2
[7] = human, plasma, oral, 150 mg, Panel IV (150 mg BID Days 1-2, then 150 mg Q3D/Q4D; SF2a/b, fed), Day 3
[8] = human, plasma, oral, 150 mg, Panel IV (150 mg BID Days 1-2, then 150 mg Q3D/Q4D; SF2a/b, fed), Day 27

## COc1cc(NC(C(=O)c2c[nH]c3ccc(OC(F)(F)F)cc23)c2ccc(Cl)cc2OC)cc(S(C)(=O)=O)c1 (centres unmarked) [Compound (a)]
Panel I (450 mg BID Days 1-2, then 900 mg Q7D; SF2a/b, fed), Day 1
  Mean Cmin (SD): 0.000 (0.000) ng/mL
[1]
  Mean Cmin (SD): 2750 (1089) ng/mL
  Mean Ctrough (SD): 2780 (1047) ng/mL
Panel I (450 mg BID Days 1-2, then 900 mg Q7D; SF2a/b, fed), Day 3
  Mean Ctrough (SD): 4370 (976) ng/mL
Panel I (450 mg BID Days 1-2, then 900 mg Q7D; SF2a/b, fed), Day 10
  Mean Ctrough (SD): 1965 (35.4) ng/mL
Panel I (450 mg BID Days 1-2, then 900 mg Q7D; SF2a/b, fed), Day 17
  Mean Ctrough (SD): 1500 (113) ng/mL
Panel II (450 mg BID Days 1-2, then 450 mg Q3D/Q4D; SF2a/b, fed), Day 1
  Mean Cmin (SD): 0.000 (0.000) ng/mL
[2]
  Mean Cmin (SD): 2492 (307) ng/mL
  Mean Ctrough (SD): 2503 (293) ng/mL
Panel II (450 mg BID Days 1-2, then 450 mg Q3D/Q4D; SF2a/b, fed), Day 3
  Mean Ctrough (SD): 4132 (401) ng/mL
Panel II (450 mg BID Days 1-2, then 450 mg Q3D/Q4D; SF2a/b, fed), Day 6
  Mean Ctrough (SD): 2708 (429) ng/mL
Panel II (450 mg BID Days 1-2, then 450 mg Q3D/Q4D; SF2a/b, fed), Day 10
  Mean Ctrough (SD): 2340 (577) ng/mL
Panel II (450 mg BID Days 1-2, then 450 mg Q3D/Q4D; SF2a/b, fed), Day 13
  Mean Ctrough (SD): 2343 (639) ng/mL
Panel II (450 mg BID Days 1-2, then 450 mg Q3D/Q4D; SF2a/b, fed), Day 17
  Mean Ctrough (SD): 2088 (693) ng/mL
Panel II (450 mg BID Days 1-2, then 450 mg Q3D/Q4D; SF2a/b, fed), Day 20
  Mean Ctrough: 2270 (652) ng/mL
Panel II (450 mg BID Days 1-2, then 450 mg Q3D/Q4D; SF2a/b, fed), Day 24
  Mean Ctrough (SD): 2016 (847) ng/mL
Panel II (450 mg BID Days 1-2, then 450 mg Q3D/Q4D; SF2a/b, fed), Day 27
  Mean Ctrough (SD): 1928 (605) ng/mL
Panel III (150 mg BID Days 1-2, then 300 mg Q7D; SF2a/b, fed), Day 1
  Mean Cmin (SD): 0.000 (0.000) ng/mL
[3]
  Mean Cmin (SD): 899 (151) ng/mL
  Mean Ctrough (SD): 899 (151) ng/mL
Panel III (150 mg BID Days 1-2, then 300 mg Q7D; SF2a/b, fed), Day 3
  Mean Ctrough (SD): 1582 (298) ng/mL
Panel III (150 mg BID Days 1-2, then 300 mg Q7D; SF2a/b, fed), Day 10
  Mean Ctrough (SD): 775 (99.3) ng/mL
Panel III (150 mg BID Days 1-2, then 300 mg Q7D; SF2a/b, fed), Day 17
  Mean Ctrough (SD): 700 (98.1) ng/mL
Panel IV (150 mg BID Days 1-2, then 150 mg Q3D/Q4D; SF2a/b, fed), Day 1
  Mean Cmin (SD): 0.000 (0.000) ng/mL
[4]
  Mean Cmin (SD): 892 (257) ng/mL
  Mean Ctrough (SD): 892 (257) ng/mL
Panel IV (150 mg BID Days 1-2, then 150 mg Q3D/Q4D; SF2a/b, fed), Day 3
  Mean Ctrough (SD): 1472 (385) ng/mL
Panel IV (150 mg BID Days 1-2, then 150 mg Q3D/Q4D; SF2a/b, fed), Day 6
  Mean Ctrough (SD): 865 (236) ng/mL
Panel IV (150 mg BID Days 1-2, then 150 mg Q3D/Q4D; SF2a/b, fed), Day 10
  Mean Ctrough (SD): 681 (234) ng/mL
Panel IV (150 mg BID Days 1-2, then 150 mg Q3D/Q4D; SF2a/b, fed), Day 13
  Mean Ctrough (SD): 689 (238) ng/mL
Panel IV (150 mg BID Days 1-2, then 150 mg Q3D/Q4D; SF2a/b, fed), Day 17
  Mean Ctrough (SD): 570 (269) ng/mL
Panel IV (150 mg BID Days 1-2, then 150 mg Q3D/Q4D; SF2a/b, fed), Day 20
  Mean Ctrough: 710 (236) ng/mL
Panel IV (150 mg BID Days 1-2, then 150 mg Q3D/Q4D; SF2a/b, fed), Day 24
  Mean Ctrough (SD): 612 (239) ng/mL
Panel IV (150 mg BID Days 1-2, then 150 mg Q3D/Q4D; SF2a/b, fed), Day 27
  Mean Ctrough (SD): 623 (237) ng/mL
Panels I-IV, fed
  maintaining exposures over time with weekly or twice weekly dosing: feasible to maintain Compound (a) exposures over time
[5]
  AUC: 5680 ng·h/mL
  Tmax: 5 h
[6]
  AUC: 16800 ng·h/mL
  Cmax: 1810 ng/mL
  Tmax: 5 h
human, plasma, oral, 150 mg, Panel IV (150 mg BID Days 1-2, then 150 mg Q3D/Q4D; SF2a/b, fed), Day 1
  Cmax: 753 ng/mL
human, plasma, oral, 150 mg, Panel IV (150 mg BID Days 1-2, then 150 mg Q3D/Q4D; SF2a/b, fed), Day 3, read-out: Mean AUC24 h (SD)
  AUC(0-t): 38600 ng·h/mL
human, plasma, oral, 150 mg, Panel IV (150 mg BID Days 1-2, then 150 mg Q3D/Q4D; SF2a/b, fed), Day 3, read-out: Mean AUC72 h (SD)
  AUC(0-t): 89200 ng·h/mL
[7]
  Cmax: 2120 ng/mL
  Tmax: 5 h
human, plasma, oral, 150 mg, Panel IV (150 mg BID Days 1-2, then 150 mg Q3D/Q4D; SF2a/b, fed), Day 6
  Cmax: 1460 ng/mL
human, plasma, oral, 150 mg, Panel IV (150 mg BID Days 1-2, then 150 mg Q3D/Q4D; SF2a/b, fed), Day 10
  Cmax: 1230 ng/mL
human, plasma, oral, 150 mg, Panel IV (150 mg BID Days 1-2, then 150 mg Q3D/Q4D; SF2a/b, fed), Day 13
  Cmax: 1180 ng/mL
human, plasma, oral, 150 mg, Panel IV (150 mg BID Days 1-2, then 150 mg Q3D/Q4D; SF2a/b, fed), Day 17, n = 3
  Cmax: 1210 ng/mL
human, plasma, oral, 150 mg, Panel IV (150 mg BID Days 1-2, then 150 mg Q3D/Q4D; SF2a/b, fed), Day 20
  Cmax: 1200 ng/mL
human, plasma, oral, 150 mg, Panel IV (150 mg BID Days 1-2, then 150 mg Q3D/Q4D; SF2a/b, fed), Day 24
  Cmax: 1260 ng/mL
human, plasma, oral, 150 mg, Panel IV (150 mg BID Days 1-2, then 150 mg Q3D/Q4D; SF2a/b, fed), Day 27, read-out: Mean AUC24 h (SD)
  AUC(0-t): 26000 ng·h/mL
human, plasma, oral, 150 mg, Panel IV (150 mg BID Days 1-2, then 150 mg Q3D/Q4D; SF2a/b, fed), Day 27, read-out: Mean AUC72 h (SD)
  AUC(0-t): 65800 ng·h/mL
human, plasma, oral, 150 mg, Panel IV (150 mg BID Days 1-2, then 150 mg Q3D/Q4D; SF2a/b, fed), Day 27, read-out: Mean AUClast (SD)
  AUC(0-t): 258000 ng·h/mL
human, plasma, oral, 150 mg, Panel IV (150 mg BID Days 1-2, then 150 mg Q3D/Q4D; SF2a/b, fed), Day 27, read-out: Mean AUC∞ (SD)
  AUC(0-inf): 274 µg·h/mL
[8]
  Cmax: 1380 ng/mL
  Tmax: 5 h
human, plasma, oral, 300 mg, Panel III (150 mg BID Days 1-2, then 300 mg Q7D; SF2a/b, fed), Day 3, read-out: Mean AUC24 h (SD)
  AUC(0-t): 52400 ng·h/mL
human, plasma, oral, 300 mg, Panel III (150 mg BID Days 1-2, then 300 mg Q7D; SF2a/b, fed), Day 3, read-out: Mean AUC72 h (SD)
  AUC(0-t): 122000 ng·h/mL

— patent US20250281457A1, “TREATMENT OR PREVENTION OF DENGUE VIRAL INFECTION” (Janssen Pharmaceuticals, Inc., priority 2022, published 2025)
